# Results reported in patent US20100093715A1, “Plant productivity enhancement by combining chemical agents with transgenic modifications” (BASF SE, priority 2007, published 2010).
# Tests used:
# [1] = test system: J553x(HIIIAxA188) null and transgenic corn; assay: Fipronil/Pyraclostrobin study, second trial: seed treatment, greenhouse growth, LemnaTec Scanalyzer imaging; type: in vivo, maize (Zea Mays L.)
# Description: (§1) J553x(HIIIAxA188) null and transgenic corn seeds of the T2 generation were treated with deionized water (Blank), 200 grams fipronil, 10 grams pyraclostrobin (F500), and 200 grams fipronil+10 grams pyraclostrobin; all formulation rates were grams/100 kg seed. Every formulation was applied to approximately 80 seeds. The formulation was pipetted into a 125 ml flask along the sides and bottom of the flask before adding the seeds and shaking the flask for 30 seconds. The coated seeds were then removed from the flask and placed in a plastic dish for drying.
# (§2) Seventy-five 3-L pots per treatment (Blank, fipronil, pyraclostrobin, and fipronil+pyraclostrobin) were filled with potting media, labeled with colored stakes, and given a unique barcode. One seed per pot was planted at a depth of approximately 2 cm and covered with media. The media was lightly watered to imbibe the seeds, while allowing for ample oxygen exchange and so that the chemical coatings on the seeds remained intact. After planting, the pots were randomly distributed into three replicate blocks (1 bench=1 block), each with 25 plants of every treatment.
# (§3) The plants were maintained in a greenhouse under optimal, well-watered conditions (80-90% field capacity) upon emergence. Supplemental nutrients were administered every third day during watering. The greenhouse temperature was maintained at 30° C., relative humidity at 75%, and light at 350 μmol m^−2s^−1, in a 15-hour day/9-hour night photoperiod. Supplemental lighting was provided using metal-halide lights. Once per week, the pots were randomly mixed within each block.
# (§4) On day 21, the plants were imaged to collect the phenotypic data as described in the Imaging Procedures section. Leaves were sampled for transgene copy number on day 25 to identify the null and transgenic plants. On day 28, the plants were imaged and then harvested to collect fresh weight. The presence of the transgene was determined by the Taqman molecular analysis technique. Differences in the phenotypic data collected during the imaging process and in fresh weight among the four treatments and between the null and transgenic plants were assessed. The chemical by transgenic interactions were determined.
# (§5) Imaging of the plants was facilitated using a LemnaTec Scanalyzer (Würselen, Germany), which includes a conveyor belt, an imaging station, a watering station, and computers for collecting, processing, and storing the image data. The cameras have a resolution of 1280×960 pixels and operate in 24-bit color.
# (§6) The plants were manually transferred by block onto the conveyor system of the scanalyzer. Each plant was then moved through the imager automatically. At the imaging station, cameras collected the top view image and two side view images. The side view images were the transverse view and the view parallel with the plane of the plant.
# (§7) As described in the formula (see Appendix A), the scanalyzer calculates plant volume as a number of pixels. To assign a physiologically meaningful value to the volume measurements, a separate experiment was conducted. The plants were scanned with the scanalyzer then harvested. The plant material was placed into a graduated cylinder filled to a known volume with water. The difference between the water plus plant material and water alone provided a known plant volume in mL.
# (§8) Using the LemnaTec scanalyzer, we collected stem width; stalk volume; top, transverse, and parallel view plant areas; top, transverse, and parallel view green and yellow pixel counts; stem length; leaf angles and internode lengths through leaf 5; plant width and height; total leaf length; and total plant length.
# (§9) Fresh Weight—A measurement of the fresh weight of the plant in grams. Hand-collected fresh weight is measured by harvesting the plant and weighing it on a balance. LemnaTec fresh weight is calculated by the scanalyzer based on plant volume and plant age. The zoom angles of the camera lenses are normalized using a calibration table. […]
# [2] = test system: J553x(HIIIAxA188) null and transgenic corn; assay: Fipronil/Pyraclostrobin study, initial trial: seed treatment, greenhouse growth, LemnaTec Scanalyzer imaging and harvest; type: in vivo, maize (Zea Mays L.); conditions: for Internode 1 length / Internode 2 length / Internode 3 length: seed treatment; for Fresh Weight: hand-collected
# Description: as §1, §2, §3, §4, §5, §6, §7, §8, §9
compound,measurement,setting,value
"COC(=O)N(OC)c1ccccc1COc1ccn(-c2ccc(Cl)cc2)n1 [F500, pyraclostrobin]","Plant volume, significance of treatment",[1],significant at 99%
same,"dark green pixel count, significance of treatment",[1],significant at 99%
same,Broad Side Drk Grn,[1]; Avg,26984.96 pixels
same,Broad Side Plnt Area,[1]; Avg,38169.74 pixels
same,Calc Fresh Weight,[1]; Avg,105.47 g
same,Narrow Side Drk Grn,[1]; Avg,27393.61 pix
same,Plant Volume,[1]; Avg,10.47 M pixels
same,Top Drk Grn,[1]; Avg,59991.92 pixels
same,Broad Side Drk Grn,[1]; Null plants,26088.87 pixels
same,Broad Side Plnt Area,[1]; Null plants,36740.30 pixels
same,Calc Fresh Weight,[1]; Null plants,100.53 g
same,Narrow Side Drk Grn,[1]; Null plants,26394.93 pix
same,Plant Volume,[1]; Null plants,9.90 M pixels
same,Top Drk Grn,[1]; Null plants,57676.78 pixels
same,Broad Side Drk Grn,[1]; Trans plants,27881.04 pixels
same,Broad Side Plnt Area,[1]; Trans plants,39599.17 pixels
same,Calc Fresh Weight,[1]; Trans plants,110.41 g
same,Narrow Side Drk Grn,[1]; Trans plants,28392.28 pix
same,Plant Volume,[1]; Trans plants,11.04 M pixels
same,Top Drk Grn,[1]; Trans plants,62307.07 pixels
same,photosynthetic health (in words),[1]; in general,enhanced
same,plant size (in words),[1]; in general,enhanced
same,# Fully Expanded Leaves,[2]; Avg,3.0
same,Leaf Angle 0,[2]; Avg,46.6 degrees
same,Leaf Angle 1,[2]; Avg,37.4 degrees
same,Plant Volume,[2]; Avg,6.43E+06 pixels
same,Stem Length,[2]; Avg,104.4 cm
same,"stalk area from the transverse view, Pixel Count",[2]; Avg,4724 pixels
same,Internode 1 length,[2]; Avg of null and transgenic,34.3 cm
same,Internode 2 length,[2]; Avg of null and transgenic,38.4 cm
same,Internode 3 length,[2]; Avg of null and transgenic,40.7 cm
same,# Fully Expanded Leaves,[2]; Null plants,2.9
same,Leaf Angle 0,[2]; Null plants,39.2 degrees
same,Leaf Angle 1,[2]; Null plants,36.5 degrees
same,Plant Volume,[2]; Null plants,6.18E+06 pixels
same,Stem Length,[2]; Null plants,97.2 cm
same,"stalk area from the transverse view, Pixel Count",[2]; Null plants,4725 pixels
same,Internode 1 length,[2]; Null plants,32.5 cm
same,Internode 2 length,[2]; Null plants,36.0 cm
same,Internode 3 length,[2]; Null plants,38.8 cm
same,Internode 1 length,[2]; Trans (transgenic) plants,35.9 cm
same,Internode 2 length,[2]; Trans (transgenic) plants,40.4 cm
same,Internode 3 length,[2]; Trans (transgenic) plants,42.1 cm
same,# Fully Expanded Leaves,[2]; Trans plants,3.1
same,Leaf Angle 0,[2]; Trans plants,52.5 degrees
same,Leaf Angle 1,[2]; Trans plants,38.2 degrees
same,Plant Volume,[2]; Trans plants,6.63E+06 pixels
same,Stem Length,[2]; Trans plants,110.2 cm
same,"stalk area from the transverse view, Pixel Count",[2]; Trans plants,4723 pixels
same,Fresh Weight,[2]; Avg,155.3 grams
same,Fresh Weight,[2]; Null plants,155.7 grams
same,Fresh Weight,[2]; Trans plants,155.0 grams
same,Dark Green Count,"[2]; parallel view, Avg",14884.7 pixels
same,Medium Green Count,"[2]; parallel view, Avg",6153.1 pixels
same,Plant Area,"[2]; parallel view, Avg",23089.7 pixels
same,Yellow Count,"[2]; parallel view, Avg",2051.9 pixels
same,Dark Green Count,"[2]; parallel view, Null plants",14727.7 pixels
same,Medium Green Count,"[2]; parallel view, Null plants",5691.8 pixels
same,Plant Area,"[2]; parallel view, Null plants",22426.2 pixels
same,Yellow Count,"[2]; parallel view, Null plants",2006.6 pixels
same,Dark Green Count,"[2]; parallel view, Trans plants",15010.4 pixels
same,Medium Green Count,"[2]; parallel view, Trans plants",6522.1 pixels
same,Plant Area,"[2]; parallel view, Trans plants",23620.6 pixels
same,Yellow Count,"[2]; parallel view, Trans plants",2088.1 pixels
same,Medium Green Count,"[2]; top view, Avg",18542 pixels
same,Medium Green Count,"[2]; top view, Null plants",17893 pixels
same,Medium Green Count,"[2]; top view, Trans plants",19062 pixels
same,Medium Green Count,"[2]; transverse view, Avg",9584.5 pixels
same,Yellow Count,"[2]; transverse view, Avg",4227.2 pixels
same,Medium Green Count,"[2]; transverse view, Null plants",9303.7 pixels
same,Yellow Count,"[2]; transverse view, Null plants",4081.7 pixels
same,Medium Green Count,"[2]; transverse view, Trans plants",9809.2 pixels
same,Yellow Count,"[2]; transverse view, Trans plants",4343.5 pixels
